Laboratory results published in PMC3994528, “GE23077 binds to the RNA polymerase ‘i’ and ‘i+1’ sites and prevents the binding of initiating nucleotides” (eLife, 2014).
Converted amounts (≈) assume the structure as drawn.

How the values were obtained:
E. coli RNAP holoenzyme [1] = target: T1, E. coli RNAP holoenzyme (Escherichia coli, UniProt P0A8T7+P0A8V2); format: biochemical; conditions: 0.5 μM GE; T7 A1 promoter
Escherichia coli RNAP = Escherichia coli RNAP (Escherichia coli, UniProt P0A8T7+P0A8V2); assay: biochemical; format: biochemical; conditions: wild-type E. coli RNAP
[2] = target: T2, Staphylococcus aureus RNAP (Staphylococcus aureus, UniProt P47768+Q2G0N5); assay: biochemical
T2 construct: made in house

E. coli RNAP holoenzyme [3] = target: T1, E. coli RNAP holoenzyme; format: biochemical; conditions: halted TEC containing 29 nt RNA product
[Lys684]β-RNAP [4] = target: T3, [Lys684]β-RNAP (Escherichia coli, UniProt P0A8T7+P0A8V2, N684K); assay: biochemical; conditions: GE-resistant RNAP [Lys684]β-RNAP
E. coli RNAP holoenzyme [5] = target: T1, E. coli RNAP holoenzyme; format: biochemical; conditions: 0.5 μM GE or 2.2 μM Rif; ApA primer and UTP
S. pyogenes = assay: Resistance levels, chromosomal GE^R mutants, broth microdilution; format: cell-based, Streptococcus pyogenes
E. coli RNAP core enzyme = target: T4, E. coli RNAP core enzyme (Escherichia coli, UniProt P0A8T7+P0A8V2); format: biochemical; conditions: 0.5 μM GE
T4 construct: purchased Epicentre, Madison, WI

[Lys684]β-RNAP [6] = target: T3, [Lys684]β-RNAP; assay: Fluorescence-detected RNAP-Rif interaction assay, GE-resistant RNAP; format: binding
Procedure: (§1) RNAP-Rif interaction assays were performed as in [Feklistov et al. (2008)]. The assays monitored the quenching of the fluorescence emission of fluorescein incorporated into RNAP holoenzyme at σ^70 residue 517 (serving as a fluorescence-resonance-energy-transfer donor) by the naphthyl moiety of Rif (serving as a fluorescence-resonance-energy-transfer acceptor; [Knight et al., 2005]; [Feklistov et al., 2008]). Fluorescence measurements were performed using a QuantaMaster QM1 spectrofluorometer (PTI, Edison, NJ) (excitation wavelength = 480 nm; emission wavelength = 530 nm; and excitation and emission slit widths = 5 nm).
(§2) For determination of association kinetics, 720 μl 2 nM [F^517]σ^70-RNAP holoenzyme and 0-2 μM GE in 40 mM Tris–HCl, pH 8.0, 100 mM NaCl, 10 mM MgCl2, 1 mM DTT, 0.02% Tween-20, and 5% glycerol was incubated 15 min at 24°C and then mixed with 30 μl 0.01–0.5 μM Rif in the same buffer at 24°C in a cuvette chamber with a mixing dead time ∼0.5 s, and fluorescence emission intensities were monitored for 30 min at 24°C. […]
(§3) The equilibrium dissociation constant for RNAP-GE interaction, Ki, was calculated from the association-kinetics data, by fitting the GE-concentration-dependence of I∞ to: I∞=(I∞,max[GE])/(Ki+[GE])

[Asp565]β-RNAP = [Asp565]β-RNAP (Escherichia coli, UniProt P0A8T7+P0A8V2, E565D); assay: as above; format: binding
Procedure: as §1, §2, §3

E. coli D21f2tolC = assay: Resistance and cross-resistance levels, rpoB mutants from saturation mutagenesis (plasmid-borne), broth microdilution; format: cell-based, Escherichia coli
[7] = target: T5, E. coli RNAP holoenzyme ([F^517]σ^70-RNAP holoenzyme) (Escherichia coli, UniProt P0A8T7+P0A8V2); assay: Fluorescence-detected RNAP-Rif interaction assay; format: binding
T5 construct: made in house
Procedure: as §1
For determination of association kinetics, 720 μl 2 nM [F^517]σ^70-RNAP holoenzyme and 0-2 μM GE in 40 mM Tris–HCl, pH 8.0, 100 mM NaCl, 10 mM MgCl2, 1 mM DTT, 0.02% Tween-20, and 5% glycerol was incubated 15 min at 24°C and then mixed with 30 μl 0.01–0.5 μM Rif in the same buffer at 24°C in a cuvette chamber with a mixing dead time ∼0.5 s, and fluorescence emission intensities were monitored for 30 min at 24°C. On-rates for RNAP-Rif interaction, kon, were calculated by fitting data to: I=(I0−I∞)exp(−kobst)+I∞ where kobs is the observed association rate constant at a specified Rif concentration, I is the fluorescence emission intensity at time t, Io is the fluorescence emission intensity at t = 0, and I∞ is the fluorescence emission intensity at t = ∞; followed by fitting the Rif-concentration-dependence of kobs to: kobs=kon[Rif]+koff where koff is ≥0 but is otherwise unconstrained.
Off-rates for RNAP-Rif interaction, koff, were calculated as: I=I0+(I∞−I0)[1−exp(−kofft)] where I is the fluorescence emission intensity at time t, Io is the fluorescence intensity at t = 0, and I∞ is the fluorescence intensity at t = ∞.
Equilibrium dissociation constants for RNAP-Rif interaction, Kd, were calculated as koff/kon.
as §3

[8] = system: Moraxella catarrhalis ATCC 25238; assay: Antibacterial activity, MIC by broth microdilution; format: cell-based; conditions: ATCC25238
Description: (§4) Minimum inhibitory concentrations (MICs) were quantified using broth microdilution assays ([Clinical and Laboratory Standards Institute, 2009]), using a starting cell density of 3 × 10^4 cfu/ml, LB broth ([Sambrook and Russell, 2001]), and an air atmosphere for E. coli D21f2tolC (tolC:Tn10 rfa lac28 proA23 trp30 his51 rpsL173 ampC tsx81; strain with cell-envelope defects resulting in increased susceptibility to hydrophobic agents, including GE; Fralick and Burns-Keliher, 1994; unpublished data), and using a starting cell density of 3 × 10^4 cfu/ml, Bacto Todd Hewitt broth (TH broth; BD Biosciences, San Jose, CA), and a 7% CO2/6% O2/4% H2/83% N2 atmosphere for S. pyogenes and M. catarrhalis.

[9] = system: Streptococcus pyogenes ATCC 12344; assay: Antibacterial activity, MIC by broth microdilution; format: cell-based; conditions: ATCC12344
Description: as §4

[10] = system: Escherichia coli D21f2tolC; assay: Antibacterial activity, MIC by broth microdilution; format: cell-based; conditions: starting cell density 3 × 10^4 cfu/ml
Description: as §4

[11] = target: T6, Mycobacterium tuberculosis RNAP (Mycobacterium tuberculosis, UniProt P9WGY7+P9WGY9); assay: biochemical
T6 construct: made in house

Human RNAP I / II / III = assay: Radiochemical assay with human RNAP I/II/III (HeLa nuclear extract); format: biochemical
Procedure: Radiochemical assays with human RNAP I/II/III were performed essentially as in [Sawadogo and Roeder (1985)]. Reaction mixtures contained (20 µl): 0–100 µM GE, 8 U HeLaScribe Nuclear Extract (Promega, Madison, WI), 1 µg human placental DNA (Sigma–Aldrich), 400 μM ATP, 400 μM [α^32P]UTP (0.11 Bq/fmol), 400 μM CTP, 400 μM GTP, 50 mM Tris–HCl, pH 8.0, 7 mM HEPES-NaOH, 70 mM (NH4)2SO4, 50 mM KCl, 12 mM MgCl2, 5 mM DTT, 0.1 mM EDTA, 0.08 mM phenylmethylsulfonyl fluoride, and 16% glycerol. Reaction components other than DNA and NTPs were pre-incubated 10 min at 30°C, DNA was added and reaction mixtures were incubated 15 min at 30°C, NTPs were added and reaction mixtures were incubated 60 min at 30°C. Reaction mixtures were spotted on DE81 filter discs (Whatman, Kent, UK; pre-wetted with water) and incubated 1 min at room temperature. Filters were washed with 3 × 3 ml Na2HPO4, 2 × 3 ml water, and 3 ml ethanol, using a filter manifold (Hoefer, Holliston, MA). Filters were placed in scintillation vials containing 10 ml Scintiverse BD Cocktail (Thermo Fisher, Waltham, MA), and radioactivity was quantified by scintillation counting (LS6500; Beckman–Coulter, Brea, CA).
Half-maximal inhibitory concentrations (IC50s) were calculated by non-linear regression in SigmaPlot (SPSS, Chicago, IL).

[12] = target: T7, Thermus thermophilus RNAP (Thermus thermophilus, UniProt Q8RQE8+Q8RQE9); assay: biochemical
T7 construct: made in house

E. coli RNAP holoenzyme [13] = target: T1, E. coli RNAP holoenzyme; format: biochemical; conditions: 0.5 μM GE or 2.2 μM Rif; lacUV5(ICAP) promoter

T7 sequence (Q8RQE8 whole entry): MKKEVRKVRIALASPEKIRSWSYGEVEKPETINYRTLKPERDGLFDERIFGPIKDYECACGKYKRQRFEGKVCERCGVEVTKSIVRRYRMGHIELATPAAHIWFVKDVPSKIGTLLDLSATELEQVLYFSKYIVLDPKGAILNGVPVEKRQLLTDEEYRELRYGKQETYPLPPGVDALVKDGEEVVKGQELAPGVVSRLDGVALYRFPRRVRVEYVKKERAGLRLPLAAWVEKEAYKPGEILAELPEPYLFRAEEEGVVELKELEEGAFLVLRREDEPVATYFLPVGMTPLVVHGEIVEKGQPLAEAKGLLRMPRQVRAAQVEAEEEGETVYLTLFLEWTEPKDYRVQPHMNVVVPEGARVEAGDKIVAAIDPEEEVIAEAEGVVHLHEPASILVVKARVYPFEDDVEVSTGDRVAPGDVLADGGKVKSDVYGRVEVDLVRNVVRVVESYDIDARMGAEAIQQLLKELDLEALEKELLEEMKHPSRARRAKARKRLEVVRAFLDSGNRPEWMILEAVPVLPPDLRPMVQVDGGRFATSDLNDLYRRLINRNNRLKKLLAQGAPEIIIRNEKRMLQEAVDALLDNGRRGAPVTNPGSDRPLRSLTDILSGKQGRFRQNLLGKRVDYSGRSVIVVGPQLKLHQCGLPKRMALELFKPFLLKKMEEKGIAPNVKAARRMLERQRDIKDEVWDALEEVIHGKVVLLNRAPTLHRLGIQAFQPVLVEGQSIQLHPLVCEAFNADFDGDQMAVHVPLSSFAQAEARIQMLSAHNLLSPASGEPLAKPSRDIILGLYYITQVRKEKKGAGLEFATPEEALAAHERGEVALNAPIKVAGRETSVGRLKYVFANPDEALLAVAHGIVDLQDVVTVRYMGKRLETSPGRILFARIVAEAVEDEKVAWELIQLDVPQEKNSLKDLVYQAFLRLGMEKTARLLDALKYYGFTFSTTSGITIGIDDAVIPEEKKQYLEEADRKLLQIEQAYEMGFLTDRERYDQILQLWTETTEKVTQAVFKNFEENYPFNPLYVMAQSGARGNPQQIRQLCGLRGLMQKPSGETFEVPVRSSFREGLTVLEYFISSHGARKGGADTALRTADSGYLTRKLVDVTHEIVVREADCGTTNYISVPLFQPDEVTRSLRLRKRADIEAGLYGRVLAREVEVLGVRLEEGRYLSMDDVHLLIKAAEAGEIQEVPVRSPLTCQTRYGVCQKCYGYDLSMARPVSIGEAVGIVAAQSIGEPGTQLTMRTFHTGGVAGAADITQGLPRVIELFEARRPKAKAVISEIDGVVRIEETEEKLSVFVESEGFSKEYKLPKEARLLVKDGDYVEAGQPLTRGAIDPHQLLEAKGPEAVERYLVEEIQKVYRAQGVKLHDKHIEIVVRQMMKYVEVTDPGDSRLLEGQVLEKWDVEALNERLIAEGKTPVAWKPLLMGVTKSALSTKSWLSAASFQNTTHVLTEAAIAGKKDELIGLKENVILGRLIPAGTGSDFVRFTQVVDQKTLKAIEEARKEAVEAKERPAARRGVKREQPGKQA
T7 sequence (Q8RQE9 whole entry): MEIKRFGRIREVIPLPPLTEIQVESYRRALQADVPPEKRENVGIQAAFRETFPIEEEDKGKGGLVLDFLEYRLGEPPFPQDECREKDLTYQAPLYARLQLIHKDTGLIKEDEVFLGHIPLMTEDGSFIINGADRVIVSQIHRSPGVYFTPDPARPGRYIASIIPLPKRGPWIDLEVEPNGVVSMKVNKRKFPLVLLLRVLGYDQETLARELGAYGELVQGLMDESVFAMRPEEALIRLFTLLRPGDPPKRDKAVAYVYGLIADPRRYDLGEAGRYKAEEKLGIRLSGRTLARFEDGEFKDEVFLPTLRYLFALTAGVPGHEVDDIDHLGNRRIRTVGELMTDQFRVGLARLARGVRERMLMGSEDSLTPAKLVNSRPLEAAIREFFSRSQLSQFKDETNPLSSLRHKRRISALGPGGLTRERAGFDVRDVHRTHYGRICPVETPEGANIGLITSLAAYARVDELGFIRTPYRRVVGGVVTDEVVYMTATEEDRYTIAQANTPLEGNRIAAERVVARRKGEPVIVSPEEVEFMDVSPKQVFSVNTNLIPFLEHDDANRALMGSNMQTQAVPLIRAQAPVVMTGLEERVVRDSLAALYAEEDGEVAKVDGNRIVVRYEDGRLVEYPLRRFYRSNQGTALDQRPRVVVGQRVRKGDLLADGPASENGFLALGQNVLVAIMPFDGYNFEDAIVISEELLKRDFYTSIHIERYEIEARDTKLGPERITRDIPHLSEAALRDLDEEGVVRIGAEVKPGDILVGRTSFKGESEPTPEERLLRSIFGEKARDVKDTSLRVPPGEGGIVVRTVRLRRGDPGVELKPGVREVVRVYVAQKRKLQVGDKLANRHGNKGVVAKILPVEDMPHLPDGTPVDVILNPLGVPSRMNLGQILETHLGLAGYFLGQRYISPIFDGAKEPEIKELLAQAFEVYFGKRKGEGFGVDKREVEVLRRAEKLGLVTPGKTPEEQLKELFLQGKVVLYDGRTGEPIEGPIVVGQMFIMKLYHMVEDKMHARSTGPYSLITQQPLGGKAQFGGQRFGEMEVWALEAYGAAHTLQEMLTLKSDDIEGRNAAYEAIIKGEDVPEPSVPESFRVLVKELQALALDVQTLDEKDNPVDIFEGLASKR

**Q.** Which “inhibition of first nucleotide addition, de novo transcription initiation” value (E. coli RNAP holoenzyme [1]) does the source give for CC=C(C)C(=O)NCC1NC(=O)C(C(=O)O)NC(=O)C(O)CNC(=O)C(C(C)O)NC(=O)C(C(O)C(O)C(N)=O)NC(=O)C(C(C)C)NC(=O)C(CO)NC1=O (stereo not shown) [GE, GE23077] here?
**A.** The value was “inhibits the first nucleotide-addition step”.

**Q.** And the IC50 (Escherichia coli RNAP)?
**A.** Its IC50 is 20 nM.

**Q.** What about the IC50 [2] of the same compound?
**A.** Its IC50 is 20 nM.

**Q.** What about the “inhibition of nucleotide addition in transcription elongation, halted elongation complex” value (E. coli RNAP holoenzyme [3]) of the same compound?
**A.** The value was “does not inhibit transcription elongation”.

**Q.** What about the MICwild-type of the same compound?
**A.** The MICwild-type was 500 µg/mL.

**Q.** What about the IC50 ([Lys684]β-RNAP [4]) of the same compound?
**A.** The IC50 was over 400000 nM.

**Q.** What about the “inhibition of first nucleotide addition, primer-dependent transcription initiation” value (E. coli RNAP holoenzyme [5]) of the same compound?
**A.** Its value is “inhibits the first nucleotide-addition step”.

**Q.** And the “resistance level (MIC/MICwild-type)” value (S. pyogenes; S. pyogenes rpoB 565 [525] Glu→Gly)?
**A.** Its value is 32.

**Q.** And the “resistance level (MIC/MICwild-type)” value (S. pyogenes; S. pyogenes rpoB 565 [525] Glu→Val)?
**A.** The value was 32.

**Q.** And the “resistance level (MIC/MICwild-type)” value (S. pyogenes; S. pyogenes rpoB 681 [643] Met→Lys)?
**A.** Its value is 16.

**Q.** What about the “resistance level (MIC/MICwild-type)” value (S. pyogenes; S. pyogenes rpoB 684 [646] Asn→Ile) of the same compound?
**A.** The value was over 32.

**Q.** What about the MICwild-type (S. pyogenes; wild-type S. pyogenes) of the same compound?
**A.** Its MICwild-type is 250 µg/mL.

**Q.** What about the “inhibition of single nucleotide addition, reconstituted elongation complex” value (E. coli RNAP core enzyme) of the same compound?
**A.** The value was “does not inhibit single nucleotide addition”.

**Q.** And the Ki ([Lys684]β-RNAP [6])?
**A.** Its Ki is over 2000 nM.

**Q.** What about the Ki ([Asp565]β-RNAP) of the same compound?
**A.** Its Ki is over 2000 nM.

**Q.** And the “cross-resistance of Rif^R mutants to GE” value (E. coli D21f2tolC; Rif^R mutants)?
**A.** The value was “do not exhibit cross-resistance”.

**Q.** And the “resistance, fold higher MIC, all six GE^R substitutions” value (E. coli D21f2tolC; all six GE^R substitutions)?
**A.** The value was “≥ fourfold”.

**Q.** What about the “fold decrease of kon for Rif by GE” value ([7]; saturating GE) of the same compound?
**A.** The value was about 20 fold.

**Q.** What about the “fold increase of Kd for Rif by GE” value ([7]; saturating GE) of the same compound?
**A.** Its value is about 80 fold.

**Q.** And the “fold increase of koff for Rif by GE” value ([7]; saturating GE)?
**A.** Its value is “fourfold”.

**Q.** What about the Ki ([7]; wild-type RNAP, 24°C, read-out: Ki,GE, equilibrium dissociation constant for inhibition of RNAP-Rif interaction by GE) of the same compound?
**A.** The Ki was 6 nM.

**Q.** And the MIC [8]?
**A.** Its MIC is 25 µg/mL (≈ 31.1 µM).

**Q.** What about the MIC [9] of the same compound?
**A.** Its MIC is 250 µg/mL (≈ 311 µM).

**Q.** And the MIC [10]?
**A.** Its MIC is 250 µg/mL (≈ 311 µM).

**Q.** What about the IC50 [11] of the same compound?
**A.** Its IC50 is 100 nM.

**Q.** And the IC50 (Human RNAP I / II / III)?
**A.** Its IC50 is over 50000 nM.

**Q.** And the IC50 [12]?
**A.** The IC50 was 20000 nM.

**Q.** What about the “inhibition of formation of RNAP-promoter open complex (RPo)” value (E. coli RNAP holoenzyme [13]) of the same compound?
**A.** The value was “does not inhibit”.
